In the assay the target is TARP γ8 dependent AMPA receptor (GluA1o-g8 fusion channel) (Homo sapiens (Human), UniProt P42261+Q8WXS5). In words: Calcium flux assay (FLIPR), HEK293 cells expressing GRIA1o-CACNG8 fusion. In kind it is cell-based. The conditions noted are these: inhibition of calcium flux after 15 μM glutamate, read-out: GluR1-γ8 pIC50 (converted). An excerpt:
This assay was used to test compounds for their ability to inhibit TARP γ8 dependent AMPA receptor activity.
An in vitro assay was used to determine the potency of test compounds as inhibitors of the glutamate response of the channel formed by GluA1o-g8. To ensure a 1:1 stoichiometry of GluA1o and g8 subunits in the expressed channel, a fusion of the cDNAs for GRIA1o and CACNG8 was used. […] A clonal cell line in HEK293 cells stably expressing this construct, with a geneticin selection marker, was generated for use in this assay. Cell expressing the GRIAlo-CACNG8 fusion construct were grown in a monolayer in 96- or 384-well microtiter plates. […] The cells were then loaded with a calcium-sensitive dye (Calcium-5 or Calcium-6, Molecular Devices) and the test compounds at a range of concentrations.
The fluorescence in each well was normalized to the fluorescence of negative and positive control wells. […] The responses to glutamate as functions of the test compound concentrations were fitted to a four-parameter logistic function. The fitted parameter corresponding to the midpoint was taken to be the potency of inhibition of the compound.
Chain of TARP γ8 dependent AMPA receptor (GluA1o-g8 fusion channel) (P42261 other isoform, or with tags, fused parts or gaps): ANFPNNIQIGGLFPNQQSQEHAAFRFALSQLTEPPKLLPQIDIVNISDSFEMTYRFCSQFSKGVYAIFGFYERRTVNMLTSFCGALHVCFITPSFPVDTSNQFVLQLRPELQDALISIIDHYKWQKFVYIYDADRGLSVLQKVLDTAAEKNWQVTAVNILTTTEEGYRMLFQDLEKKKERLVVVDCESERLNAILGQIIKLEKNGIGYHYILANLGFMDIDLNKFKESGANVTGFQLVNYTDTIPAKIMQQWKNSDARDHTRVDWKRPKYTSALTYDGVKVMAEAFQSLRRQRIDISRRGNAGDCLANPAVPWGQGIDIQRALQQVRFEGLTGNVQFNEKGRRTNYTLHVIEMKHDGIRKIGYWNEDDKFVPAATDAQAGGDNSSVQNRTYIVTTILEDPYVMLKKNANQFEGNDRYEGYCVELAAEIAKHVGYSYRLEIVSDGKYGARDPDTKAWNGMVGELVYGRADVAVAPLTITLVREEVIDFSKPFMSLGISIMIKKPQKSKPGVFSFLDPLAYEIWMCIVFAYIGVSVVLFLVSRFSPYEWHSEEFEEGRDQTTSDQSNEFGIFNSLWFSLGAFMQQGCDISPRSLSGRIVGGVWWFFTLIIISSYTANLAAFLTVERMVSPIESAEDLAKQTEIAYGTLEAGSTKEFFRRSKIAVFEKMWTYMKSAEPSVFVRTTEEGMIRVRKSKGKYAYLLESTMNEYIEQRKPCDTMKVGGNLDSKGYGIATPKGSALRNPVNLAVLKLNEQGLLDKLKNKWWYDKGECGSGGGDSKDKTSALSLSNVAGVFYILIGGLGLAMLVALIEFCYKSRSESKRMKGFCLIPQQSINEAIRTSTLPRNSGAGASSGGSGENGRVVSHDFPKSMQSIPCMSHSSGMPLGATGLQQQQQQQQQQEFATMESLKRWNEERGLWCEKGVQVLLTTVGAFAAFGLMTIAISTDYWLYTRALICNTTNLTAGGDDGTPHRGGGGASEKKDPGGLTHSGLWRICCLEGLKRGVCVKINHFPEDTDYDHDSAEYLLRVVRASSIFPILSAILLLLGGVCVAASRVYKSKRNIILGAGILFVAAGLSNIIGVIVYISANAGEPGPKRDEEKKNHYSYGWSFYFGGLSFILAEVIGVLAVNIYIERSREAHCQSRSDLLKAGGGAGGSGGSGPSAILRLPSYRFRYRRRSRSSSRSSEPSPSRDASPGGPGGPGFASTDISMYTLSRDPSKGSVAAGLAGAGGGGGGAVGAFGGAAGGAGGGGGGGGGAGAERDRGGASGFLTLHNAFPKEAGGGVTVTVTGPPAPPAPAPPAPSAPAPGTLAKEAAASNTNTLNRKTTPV
For `O=C(Nc1ccccc1)c1ccc(Cl)c(-c2ccc3[nH]c(=O)[nH]c3c2)c1` [Example 83, 4-Chloro-3-(2-oxo-1,3-dihydrobenzimidazol-5-yl)-N-phenyl-benzamide], the IC50 is 2510 nM.

Turning to `N#CCc1cccc(-c2ccc3[nH]c(=O)[nH]c3c2)c1Cl` [Example 130, 2-[2-Chloro-3-(2-oxo-1,3-dihydrobenzimidazol-5-yl)phenyl]acetonitrile], the IC50 was 2000 nM.

Take `Cc1c(CN2CC(F)C2)cccc1-c1ccc2[nH]c(=O)[nH]c2c1` [Example 157, 5-[3-[(3-Fluoroazetidin-1-yl)methyl]-2-methyl-phenyl]-1,3-dihydrobenzimidazol-2-one]: the IC50 was 6310 nM.

As to `Cc1c(CN2CCCC2)cccc1-c1ccc2[nH]c(=O)[nH]c2c1` [Example 156, 5-[2-Methyl-3-(pyrrolidin-1-ylmethyl)phenyl]-1,3-dihydrobenzimidazol-2-one], the IC50 was 6310 nM.

As for `COc1cccc(C)c1-c1ccc2[nH]c(=O)[nH]c2c1` [Example 55], the IC50 is 794 nM.

On to `O=c1[nH]c2ccc(-c3cccc(-c4ccncc4)c3Cl)cc2[nH]1` [Example 184, 5-[2-Chloro-3-(4-pyridyl)phenyl]-1,3-dihydrobenzimidazol-2-one], for which the IC50 is 126 nM.

In the case of `Cc1c(CN2CCOCC2)cccc1-c1ccc2[nH]c(=O)[nH]c2c1` [Example 148, 5-[2-Methyl-3-(morpholinomethyl)phenyl]-1,3-dihydrobenzimidazol-2-one], the IC50 was 2000 nM.

Consider `Cc1nc(-c2cccc(-c3ccc4[nH]c(=O)[nH]c4c3)c2C)no1` [Example 71, 5-[2-Methyl-3-(5-methyl-1,2,4-oxadiazol-3-yl)phenyl]-1,3-dihydrobenzimidazol-2-one], for which the IC50 is 50.1 nM.

In the case of `O=c1[nH]c2ccc(-c3cccc(Cl)c3C(F)(F)F)cc2[nH]1` [Example 34, 5-[3-Chloro-2-(trifluoromethyl)phenyl]-1,3-dihydrobenzimidazol-2-one], the IC50 was 251 nM.

Consider `O=c1[nH]c2ccc(-c3c(OCC4CC4)cccc3OC(F)(F)F)cc2[nH]1` [Example 89, 5-[2-(Cyclopropylmethoxy)-6-(trifluoromethoxy)phenyl]-1,3-dihydrobenzimidazol-2-one], for which the IC50 was 3.98 nM.

For `Cc1noc(C)c1-c1cccc(Cl)c1-c1ccc2[nH]c(=O)[nH]c2c1` [Example 174, 5-[2-Chloro-6-(3,5-dimethylisoxazol-4-yl)phenyl]-1,3-dihydrobenzimidazol-2-one], the IC50 was 794 nM.

In the case of `Cc1c(C(=O)Nc2ccccc2)cccc1-c1ccc2[nH]c(=O)[nH]c2c1` [Example 79, 2-Methyl-3-(2-oxo-1,3-dihydrobenzimidazol-5-yl)-N-phenyl-benzamide], the IC50 was 794 nM.

Regarding `Cc1c(-c2ccc3[nH]c(=O)[nH]c3c2)cccc1-c1nnc(C(F)(F)F)o1` [Example 198, 5-[2-Methyl-3-[5-(trifluoromethyl)-1,3,4-oxadiazol-2-yl]phenyl]-1,3-dihydrobenzimidazol-2-one], the IC50 is 20 nM.

For `Cc1nc(-c2cccc(-c3ccc4[nH]c(=O)sc4c3)c2C)no1` [Example 72, 6-[2-Methyl-3-(5-methyl-1,2,4-oxadiazol-3-yl)phenyl]-3H-1,3-benzothiazol-2-one], the IC50 is 794 nM.

With `O=c1[nH]c2ccc(-c3c(Cl)cccc3NCc3ccoc3)cc2[nH]1` [Example 87, 5-[2-Chloro-6-(3-furylmethylamino)phenyl]-1,3-dihydrobenzimidazol-2-one], the IC50 is 126 nM.

As to `Cc1ccc(C)c(-c2ccc3[nH]c(=O)[nH]c3c2)c1` [Example 21, 5-(2,5-Dimethylphenyl)-1,3-dihydrobenzimidazol-2-one], the IC50 is 398 nM.

On to `Cc1c(C#N)cccc1-c1ccc2[nH]c(=O)[nH]c2c1` [Example 67, 2-Methyl-3-(2-oxo-1,3-dihydrobenzimidazol-5-yl)benzonitrile], for which the IC50 was 251 nM.

`CC(C)Oc1cccc(-c2ccc3[nH]c(=O)[nH]c3c2)c1C#N` [Example 62, 2-Isopropoxy-6-(2-oxo-1,3-dihydrobenzimidazol-5-yl)benzonitrile]: the IC50 was 200 nM.

For the molecule `O=c1[nH]c2ccc(-c3c(Cl)cc(F)cc3Cl)cc2[nH]1` [Example 50, 5-(2,6-Dichloro-4-fluoro-phenyl)-1,3-dihydrobenzimidazol-2-one], the IC50 was 158 nM.

In the case of `Cc1noc(-c2cccc(-c3ccc4[nH]c(=O)[nH]c4c3)c2C)n1` [Example 203, 5-[2-Methyl-3-(3-methyl-1,2,4-oxadiazol-5-yl)phenyl]-1,3-dihydrobenzimidazol-2-one], the IC50 was 39.8 nM.

For `Cc1c(CN2CCOCC2C)cccc1-c1ccc2[nH]c(=O)[nH]c2c1` (stereo in doubt) [Example 153, (3S)-5-[2-Methyl-3-[[3-methylmorpholin-4-yl]methyl]phenyl]-1,3-dihydrobenzimidazol-2-one], the IC50 was 316 nM.

Turning to `CC(C)Oc1cccc(-c2ccc3[nH]c(=O)[nH]c3c2)c1Cl` [Example 110, 5-(2-Chloro-3-isopropoxy-phenyl)-1,3-dihydrobenzimidazol-2-one], the IC50 is 31.6 nM.

In the case of `COc1cccc(OCC(F)(F)F)c1-c1ccc2[nH]c(=O)[nH]c2c1` [Example 103, 5-[2-Methoxy-6-(2,2,2-trifluoroethoxy)phenyl]-1,3-dihydrobenzimidazol-2-one], the IC50 is 398 nM.

Turning to `CC(C)(C)Oc1cccc(Cl)c1-c1ccc2[nH]c(=O)[nH]c2c1` [Example 116, 5-(2-tert-Butoxy-6-chloro-phenyl)-1,3-dihydrobenzimidazol-2-one], the IC50 is 158 nM.

Consider `CC(C)c1ccccc1-c1ccc2[nH]c(=O)[nH]c2c1` [Example 6, 5-(2-Isopropylphenyl)-1,3-dihydrobenzimidazol-2-one], for which the IC50 is 316 nM.

As for `Cc1cccc(F)c1-c1ccc2[nH]c(=O)[nH]c2c1` [Example 54, 5-(2-Fluoro-6-methyl-phenyl)-1,3-dihydrobenzimidazol-2-one], the IC50 was 251 nM.

In the case of `COc1ccc(-c2cccc(CC#N)c2-c2ccc3[nH]c(=O)[nH]c3c2)cc1` [Example 137, 2-[3-(4-Methoxyphenyl)-2-(2-oxo-1,3-dihydrobenzimidazol-5-yl)phenyl]acetonitrile], the IC50 was 316 nM.

On to `COC(=O)c1cccc(C)c1-c1ccc2[nH]c(=O)[nH]c2c1` [Example 45, Methyl 3-methyl-2-(2-oxo-1,3-dihydrobenzimidazol-5-yl)benzoate], for which the IC50 is 251 nM.

Consider `CC(C)Oc1ccccc1-c1ccc2[nH]c(=O)[nH]c2c1` [Example 8, 5-(2-Isopropoxyphenyl)-1,3-dihydrobenzimidazol-2-one], for which the IC50 is 2000 nM.

Turning to `N#Cc1ccc(Cl)c(-c2ccc3[nH]c(=O)[nH]c3c2)c1` [Example 40, 4-Chloro-3-(2-oxo-1,3-dihydrobenzimidazol-5-yl)benzonitrile], the IC50 was 1580 nM.

`O=c1[nH]c2ccc(-c3cccc(OCC4CC4(F)F)c3Cl)cc2[nH]1` (racemic) [Example 111, (±)-5-[2-Chloro-3-[(2,2-difluorocyclopropyl)methoxy]phenyl]-1,3-dihydrobenzimidazol-2-one]: the IC50 is 50.1 nM.

Take `CC(C)(C)OC(=O)N1CC(Oc2cccc(-c3ccc4[nH]c(=O)[nH]c4c3)c2Cl)C1` [Example 114, tert-Butyl 3-[2-chloro-3-(2-oxo-1,3-dihydrobenzimidazol-5-yl)phenoxy]azetidine-1-carboxylate]: the IC50 is 200 nM.

As for `Cc1ccc(Cl)c(-c2ccc3[nH]c(=O)[nH]c3c2)c1` [Example 19, 5-(2-Chloro-5-methyl-phenyl)-1,3-dihydrobenzimidazol-2-one], the IC50 was 200 nM.

For `O=c1[nH]c2ccc(-c3cccc4cccnc34)cc2[nH]1` [Example 58, 5-(8-Quinolyl)-1,3-dihydrobenzimidazol-2-one], the IC50 is 3160 nM.

For the molecule `O=c1[nH]c2ccc(-c3c(F)cccc3F)cc2[nH]1` [Example 52, 5-(2,6-Difluorophenyl)-1,3-dihydrobenzimidazol-2-one], the IC50 is 1000 nM.

On to `CC1(C)CN(Cc2cccc(-c3ccc4[nH]c(=O)[nH]c4c3)c2Cl)CCO1` [Example 143, 5-[2-Chloro-3-[(2,2-dimethylmorpholin-4-yl)methyl]phenyl]-1,3-dihydrobenzimidazol-2-one], for which the IC50 was 100 nM.

On to `O=c1[nH]c2ccc(-c3cccc(-c4nnco4)c3Br)cc2[nH]1` [Example 193, 5-[2-Bromo-3-(1,3,4-oxadiazol-2-yl)phenyl]-1,3-dihydrobenzimidazol-2-one], for which the IC50 is 251 nM.

`COC(=O)c1cccc(-c2ccc3[nH]c(=O)[nH]c3c2)c1Cl` [Example 43, Methyl 2-chloro-3-(2-oxo-1,3-dihydrobenzimidazol-5-yl)benzoate]: the IC50 is 31.6 nM.

For the molecule `CC(C)Oc1cccc(F)c1-c1ccc2[nH]c(=O)[nH]c2c1` [Example 11, 5-(2-Fluoro-6-isopropoxy-phenyl)-1,3-dihydrobenzimidazol-2-one], the IC50 is 501 nM.

`O=c1[nH]c2ccc(-c3ccccc3Oc3ccccc3)cc2[nH]1` [Example 24, 5-(2-Phenoxyphenyl)-1,3-dihydrobenzimidazol-2-one]: the IC50 is 501 nM.

For the molecule `O=c1[nH]c2ccc(-c3c(F)cccc3Cl)cc2[nH]1` [Example 53, 5-(2-Chloro-6-fluoro-phenyl)-1,3-dihydrobenzimidazol-2-one], the IC50 is 251 nM.

These data come from patent US10611730B2, “Benzimidazolone and benzothiazolone compounds and their use as AMPA receptor modulators” (Janssen Pharmaceutica NV, priority 2015, dated 2020).
